Measurements from patent US6806283B2, “Selective serotonin receptor antagonists and therapeutic applications thereof” (Virginia Commonwealth University, priority 2002, dated 2004).
pKi: −log10 of the molar value. Like-named read-outs stand apart in the source and are kept apart here.

Legend:
[1] = biological target: norepinephrine transporter (Homo sapiens, UniProt P23975); experiment: Affinity for norepinephrine transporter; format: binding
5-HT2c receptor = biological target: T1, 5-HT2c receptor (Homo sapiens, UniProt P28335); experiment: Affinity for 5-HT2c receptor; format: binding
T1 sequence (P28335 33-458): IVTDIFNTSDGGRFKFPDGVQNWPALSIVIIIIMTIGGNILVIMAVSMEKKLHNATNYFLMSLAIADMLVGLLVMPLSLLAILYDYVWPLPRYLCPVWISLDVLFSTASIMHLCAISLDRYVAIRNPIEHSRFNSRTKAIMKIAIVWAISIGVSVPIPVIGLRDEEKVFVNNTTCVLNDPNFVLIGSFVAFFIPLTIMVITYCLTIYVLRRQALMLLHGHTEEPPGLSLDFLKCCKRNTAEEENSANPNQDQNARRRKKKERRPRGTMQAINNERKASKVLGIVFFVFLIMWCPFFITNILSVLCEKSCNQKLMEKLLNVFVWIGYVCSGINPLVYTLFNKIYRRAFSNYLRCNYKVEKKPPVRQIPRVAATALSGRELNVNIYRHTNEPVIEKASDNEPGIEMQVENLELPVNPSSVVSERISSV

5-HT2 receptor = 5-HT2 receptor (Homo sapiens, UniProt P28223); experiment: Affinity for 5-HT2 receptors; format: binding
[2] = biological target: 5-HT2A serotonin receptor (Homo sapiens, UniProt P28223); experiment: 5-HT2A serotonin receptor radioligand binding assay (3H-ketanserin)
Experimental: Binding assays were conducted in which the affinity of each of the compounds of interest for the 5-HT2A serotonin receptor was tested. Assays were conducted with the 5-HT2A receptor in buffer consisting of 50 mM Tris-Cl, 0.5 mM EDTA, 5 mM MgCl2, pH=7.4.

H1 histamine receptor = H1 histamine receptor (Homo sapiens, UniProt P35367); experiment: H1 histamine receptor radioligand binding assay (3H-pyrilamine)
Experimental: Binding assays were also conducted in which the affinity of selected compounds of interest for the H1 histamine receptor was tested. […] The H1 determinations used ^3H-pyrilamine as the radioligand with chlorpheniramine as the reference compound.

serotonin transporter = serotonin transporter (Homo sapiens, UniProt P31645); experiment: Affinity for serotonin transporter; format: binding
dopamine D2 receptor = dopamine D2 receptor (Homo sapiens, UniProt P14416); experiment: Affinity for dopamine D2 receptor; format: binding
[3] = 3H-pyrilamine radioligand, chlorpheniramine reference, read-out: H1 Ki
[4] = in words, read-out: affinity class for histamine H1 receptor

H1 histamine receptor, sequence (P35367 whole entry): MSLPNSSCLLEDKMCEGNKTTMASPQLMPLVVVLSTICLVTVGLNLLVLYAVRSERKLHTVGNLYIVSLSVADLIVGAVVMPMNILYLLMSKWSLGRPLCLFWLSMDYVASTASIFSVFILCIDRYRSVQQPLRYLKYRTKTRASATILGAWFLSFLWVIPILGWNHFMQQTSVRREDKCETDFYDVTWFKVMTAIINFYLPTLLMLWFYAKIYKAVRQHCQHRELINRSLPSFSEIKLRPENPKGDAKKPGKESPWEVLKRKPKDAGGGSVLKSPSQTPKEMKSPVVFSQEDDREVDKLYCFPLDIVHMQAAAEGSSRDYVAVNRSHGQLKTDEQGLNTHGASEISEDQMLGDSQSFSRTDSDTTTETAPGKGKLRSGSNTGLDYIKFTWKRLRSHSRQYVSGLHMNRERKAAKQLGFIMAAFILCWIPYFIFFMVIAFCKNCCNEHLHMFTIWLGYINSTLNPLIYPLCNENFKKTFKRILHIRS
5-HT2A serotonin receptor, sequence (P28223 whole entry): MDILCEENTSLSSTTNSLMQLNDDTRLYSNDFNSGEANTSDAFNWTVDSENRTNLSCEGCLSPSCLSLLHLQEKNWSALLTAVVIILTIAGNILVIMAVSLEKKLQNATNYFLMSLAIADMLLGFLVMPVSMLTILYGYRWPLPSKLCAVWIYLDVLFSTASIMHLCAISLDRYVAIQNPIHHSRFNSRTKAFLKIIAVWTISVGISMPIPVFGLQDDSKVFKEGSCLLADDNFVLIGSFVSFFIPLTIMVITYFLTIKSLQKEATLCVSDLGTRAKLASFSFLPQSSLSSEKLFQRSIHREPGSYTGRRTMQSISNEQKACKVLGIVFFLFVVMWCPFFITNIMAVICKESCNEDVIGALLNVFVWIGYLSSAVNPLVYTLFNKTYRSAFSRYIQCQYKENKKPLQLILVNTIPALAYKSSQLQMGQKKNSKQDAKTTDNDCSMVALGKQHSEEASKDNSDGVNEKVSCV
5-HT2 receptor, sequence (P28223 whole entry): as above
serotonin transporter, sequence (P31645 whole entry): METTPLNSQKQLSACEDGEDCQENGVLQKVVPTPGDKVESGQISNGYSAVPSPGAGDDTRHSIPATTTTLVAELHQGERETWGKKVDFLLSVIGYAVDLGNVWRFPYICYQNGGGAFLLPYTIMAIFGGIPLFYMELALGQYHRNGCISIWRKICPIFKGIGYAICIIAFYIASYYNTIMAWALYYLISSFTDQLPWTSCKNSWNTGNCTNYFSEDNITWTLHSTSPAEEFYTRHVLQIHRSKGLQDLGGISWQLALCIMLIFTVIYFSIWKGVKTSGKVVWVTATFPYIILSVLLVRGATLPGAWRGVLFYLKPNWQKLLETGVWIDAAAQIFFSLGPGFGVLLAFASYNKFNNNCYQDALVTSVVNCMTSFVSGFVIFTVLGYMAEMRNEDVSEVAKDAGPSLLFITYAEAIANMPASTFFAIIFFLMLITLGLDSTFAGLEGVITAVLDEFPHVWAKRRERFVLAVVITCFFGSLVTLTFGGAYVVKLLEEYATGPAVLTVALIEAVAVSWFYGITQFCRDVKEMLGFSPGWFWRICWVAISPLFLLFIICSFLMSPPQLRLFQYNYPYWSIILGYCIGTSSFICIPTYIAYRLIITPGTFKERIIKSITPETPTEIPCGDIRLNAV
dopamine D2 receptor, sequence (P14416 whole entry, species assumed): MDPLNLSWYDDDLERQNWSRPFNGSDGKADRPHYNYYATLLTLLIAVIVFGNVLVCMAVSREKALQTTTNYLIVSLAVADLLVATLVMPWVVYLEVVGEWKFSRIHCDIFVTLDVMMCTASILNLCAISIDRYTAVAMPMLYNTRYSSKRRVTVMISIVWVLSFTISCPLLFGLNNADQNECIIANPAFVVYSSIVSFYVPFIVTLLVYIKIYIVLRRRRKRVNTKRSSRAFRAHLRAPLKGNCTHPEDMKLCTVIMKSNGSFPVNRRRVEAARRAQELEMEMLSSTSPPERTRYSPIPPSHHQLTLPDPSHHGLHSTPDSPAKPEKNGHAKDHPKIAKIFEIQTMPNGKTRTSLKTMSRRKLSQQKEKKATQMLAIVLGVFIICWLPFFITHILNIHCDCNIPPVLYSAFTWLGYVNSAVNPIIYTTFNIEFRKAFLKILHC
norepinephrine transporter, sequence (P23975 whole entry, species assumed): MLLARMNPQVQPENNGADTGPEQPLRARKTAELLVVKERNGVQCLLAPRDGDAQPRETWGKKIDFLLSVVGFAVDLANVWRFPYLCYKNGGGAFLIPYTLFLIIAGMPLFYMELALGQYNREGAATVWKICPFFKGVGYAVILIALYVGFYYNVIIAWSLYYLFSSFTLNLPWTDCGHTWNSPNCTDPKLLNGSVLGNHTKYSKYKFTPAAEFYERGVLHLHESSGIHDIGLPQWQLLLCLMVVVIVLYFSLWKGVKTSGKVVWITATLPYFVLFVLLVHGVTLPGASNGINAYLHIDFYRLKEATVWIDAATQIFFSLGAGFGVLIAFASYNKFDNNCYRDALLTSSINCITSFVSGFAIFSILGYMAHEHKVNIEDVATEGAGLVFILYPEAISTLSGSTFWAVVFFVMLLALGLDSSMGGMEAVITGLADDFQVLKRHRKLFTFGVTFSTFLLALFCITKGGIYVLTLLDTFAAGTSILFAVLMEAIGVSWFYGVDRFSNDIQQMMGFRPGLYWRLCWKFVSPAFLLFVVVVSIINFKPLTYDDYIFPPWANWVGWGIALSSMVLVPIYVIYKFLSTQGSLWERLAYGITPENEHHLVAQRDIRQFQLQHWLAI

Row | pKi [2] | SMILES | pKi (H1 histamine receptor; [3]) | pKi (H1 histamine receptor; [4]) | further results
1 | 8.04 | Oc1ccc2c(c1)Cc1ccccc1C21CCNC1 (stereo not drawn) [Compound 19, Spiro[-(3-hydroxy)-9,10-dihydroanthracene]-9,3′-pyrrolidine] |  |  | 
2 | 5.69 | CCCCCCc1ccc2c(c1)Cc1ccccc1C21CCN(Cc2ccccc2)C1 (stereo not drawn) [Compound 20, 3-n-Hexyl-9,9-[spiro-3′-(n-benzyl)-pyrrolidinyl]-9,10-dihydroanthracene] |  |  | 
3 | 6.00 | c1ccc(CCCc2ccc3c(c2)Cc2ccccc2C32CCN(Cc3ccccc3)C2)cc1 (stereo not drawn) [Compound 22, 3-(3-Phenylpropyl)-9,9-[spiro-3′-(n-benzyl)-pyrrolidinyl]-9,10-dihydroanthracene] |  |  | 
4 | 8.46 | c1ccc(CCCc2ccc3c(c2)Cc2ccccc2C32CCNC2)cc1 (stereo not drawn) [Compound 23, 3-(3-Phenylpropyl)-9,9-[spiro-3′-pyrrolidinyl]-9,10-dihydroanthracene] |  |  | 
5 | 7.74 | c1ccc(-c2ccc3c(c2)Cc2ccccc2C32CCNC2)cc1 (stereo not drawn) [Compound 25, 3-(3-Phenyl)-9,9-[spiro-3′-pyrrolidinyl]-9,10-dihydroanthracene] |  |  | 

Continued, compound first:

Row | SMILES | pKi [2] | pKi (H1 histamine receptor; [3]) | pKi (H1 histamine receptor; [4]) | further results
6 | c1ccc2c(c1)Cc1ccccc1C21CCNC1 [Compound 5, Spiro[9,10-dihydroanthracene]-9,3′-pyrrolidine] | 8.42 | 8.07 | ≥ 7.00 | pKi [1]: < 5.00; pKi (5-HT2c receptor): 6.30 to 9.00; pKi (5-HT2c receptor; read-out: Ki for 5-HT2c receptor): 7.62; pKi (5-HT2 receptor): 6.30 to 9.00; pKi (5-HT2 receptor; read-out: Ki for 5-HT2 receptors): 8.40; pKi (serotonin transporter): < 5.00; pKi (dopamine D2 receptor): 5.30
7 | CN1CCC2(C1)c1ccccc1Cc1ccccc12 [Compound 6, Spiro[9,10-dihydroanthracene]-9,3′-(1-methyl)-pyrrolidine] | 7.34 |  |  | 
8 | c1ccc(CN2CCC3(C2)c2ccccc2Cc2ccccc23)cc1 [Compound 7, Spiro[9,10-dihydroanthracene]-9,3′-(1-benzyl)-pyrrolidine] | 6.66 |  |  | 
9 | CC1(C)c2ccccc2C2(CCNC2)c2ccccc21 [Compound 12, Spiro[-(10,10-dimethyl)-9,10-dihydroanthracene]-9,3′-pyrrolidine] | 7.17 |  |  | 
10 | COc1ccc2c(c1)Cc1ccccc1C21CCN(Cc2ccccc2)C1 (stereo not drawn) [Compound 16, 3-Methoxy-9,9-[spiro-3′-(n-benzyl)-pyrrolidinyl]-9,10-dihydroanthracene] | 6.00 | 7.13 | ≥ 7.00 | 
11 | COc1ccc2c(c1)Cc1ccccc1C21CCNC1 (stereo not drawn) [Compound 17, 3-Methoxy-9,9-[spiro-3′-pyrrolidinyl]-9,10-dihydro-anthracene] | 8.43 | 7.40 | ≥ 7.00 | 
12 | Oc1ccc2c(c1)Cc1ccccc1C21CCN(Cc2ccccc2)C1 (stereo not drawn) [Compound 18, 3-Hydroxy-9,9-[spiro-3′-(n-benzyl)-pyrrolidinyl]-9,10-dihydroanthracene] | 6.48 |  |  | 
13 | CCCCCCc1ccc2c(c1)Cc1ccccc1C21CCNC1 (stereo not drawn) [Compound 21, 3-n-Hexyl-9,9-[spiro-3′-pyrrolidinyl]-9,10-dihydroanthracene] | 8.22 | 5.80 |  | 
14 | c1ccc2c(c1)Oc1ccccc1C21CCNC1 [Compound 30, Spiro[xanthenyl]-9,3′-pyrrolidine] | 7.40 | 7.29 | ≥ 7.00 | 
15 | c1ccc2c(c1)Sc1ccccc1C21CCNC1 [Compound 36, Spiro[thioxanthenyl]-9,3′-pyrrolidine] | 8.30 | 8.22 | ≥ 7.00 | 
